In PubChem BioAssay AID743429 (Vanderbilt Specialized Chemistry Center, 2014):
Activity calls are given as the source filed them. The rule behind the calls is not given here.

Biological target: Metabotropic glutamate receptor 1 (Homo sapiens) (UniProt Q13255)
Experiment: mGlu1 agonist response modulation at 10 µM, profiling panel, selectivity assay for mGlu8/mGlu7 PAM project, cell-based, calcium fluorescence, agonist curve fold shift (AID 743429)
Details: mGlu1 cells, Fluo-4 calcium flux

Metabotropic glutamate receptor 1 (Homo sapiens), sequence (Q13255 whole entry, looked up): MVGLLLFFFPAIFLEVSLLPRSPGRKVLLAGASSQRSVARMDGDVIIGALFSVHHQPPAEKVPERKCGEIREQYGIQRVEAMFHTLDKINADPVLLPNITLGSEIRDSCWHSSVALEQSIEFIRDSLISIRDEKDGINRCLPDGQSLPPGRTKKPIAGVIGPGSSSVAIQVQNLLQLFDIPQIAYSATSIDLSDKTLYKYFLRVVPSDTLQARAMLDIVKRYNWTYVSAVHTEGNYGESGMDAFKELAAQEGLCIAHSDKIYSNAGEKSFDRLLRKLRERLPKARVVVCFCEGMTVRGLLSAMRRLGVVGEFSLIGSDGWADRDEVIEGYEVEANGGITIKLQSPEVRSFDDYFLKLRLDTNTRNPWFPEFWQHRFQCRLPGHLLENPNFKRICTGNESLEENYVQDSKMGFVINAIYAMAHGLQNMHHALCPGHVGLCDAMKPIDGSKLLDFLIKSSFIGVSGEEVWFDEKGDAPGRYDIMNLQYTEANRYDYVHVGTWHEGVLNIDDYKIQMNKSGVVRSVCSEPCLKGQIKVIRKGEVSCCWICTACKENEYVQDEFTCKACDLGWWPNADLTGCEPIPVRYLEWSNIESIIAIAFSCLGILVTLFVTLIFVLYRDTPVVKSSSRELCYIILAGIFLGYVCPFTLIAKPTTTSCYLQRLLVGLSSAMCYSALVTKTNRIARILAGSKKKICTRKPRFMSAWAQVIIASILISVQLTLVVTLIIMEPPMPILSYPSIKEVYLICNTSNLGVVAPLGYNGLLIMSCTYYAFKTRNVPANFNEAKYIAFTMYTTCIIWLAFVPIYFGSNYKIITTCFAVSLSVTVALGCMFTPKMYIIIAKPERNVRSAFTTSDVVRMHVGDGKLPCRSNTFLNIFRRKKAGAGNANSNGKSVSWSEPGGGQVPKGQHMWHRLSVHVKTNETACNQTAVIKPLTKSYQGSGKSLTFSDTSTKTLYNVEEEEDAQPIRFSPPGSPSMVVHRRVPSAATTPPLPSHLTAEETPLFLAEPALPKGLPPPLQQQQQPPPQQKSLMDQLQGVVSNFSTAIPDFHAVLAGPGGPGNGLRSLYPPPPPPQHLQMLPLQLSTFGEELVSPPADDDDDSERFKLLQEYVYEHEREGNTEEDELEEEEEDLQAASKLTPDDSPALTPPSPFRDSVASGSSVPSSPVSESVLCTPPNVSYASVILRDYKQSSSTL

COC(=O)c1ccc(-n2c(C)cc(C(=O)CSc3ccc(NC(C)=O)cc3)c2C)cc1
fold shift: 1.04 (inactive)
